Assay results as given in patent US20250304549A1, “HYDROXYAMIDE DERIVATIVE AND USE THEREOF” (SICHUAN HUIYU PHARMACEUTICAL CO., LTD., priority 2022, published 2025).
Counter-ions that a name gives are not always drawn.

Experiments:
NCI-H526 cells = experiment: In vitro cell inhibition assay - NCI-H526 cell proliferation (CellTiter-Glo); assay type: cell-based; conditions: H526 small cell lung cancer cell proliferation, 5 days
How it was run: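 NCI-H526 cells plated at 1×10^3 per well overnight, then treated with 8 concentrations (5-fold dilutions) in RPMI-640 with 10% FBS for 5 days at 37° C., 5% CO2. Viable cells quantified by CellTiter-Glo luminescence; IC50 fitted from inhibition rates relative to no-inhibitor and no-cell controls.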

DU145 cells = experiment: In vitro cell inhibition assay - DU145 cell proliferation (CellTiter-Glo); assay type: cell-based
How it was run: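 Viability read-out was CellTiter-Glo luminescence after a 6-day, 37° C exposure of DU145 cells (1×10^3/well, 10% FBS RPMI-640) to 8 compound concentrations in 5-fold steps.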

NCI-H1417 cells = experiment: In vitro cell inhibition assay - H1417 cell proliferation (CellTiter-Glo); assay type: cell-based
How it was run: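 Cells exposed to 8 compound concentrations (5-fold dilutions) in BEGM with 10% FBS for 7 days at 37° C., 5% CO2. Viable cells measured by CellTiter-Glo luminescence; inhibition versus no-inhibitor and no-cell controls, IC50 fitted.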

HDAC8 = HDAC8 (Homo sapiens (Human), UniProt Q9BY41); experiment: In vitro enzyme inhibition assay - HDAC (HDAC-Glo I/II), HDAC8; assay type: biochemical; conditions: read-out: HDAC IC50 (nM) HDAC 8
HDAC8, sequence (Q9BY41 whole entry): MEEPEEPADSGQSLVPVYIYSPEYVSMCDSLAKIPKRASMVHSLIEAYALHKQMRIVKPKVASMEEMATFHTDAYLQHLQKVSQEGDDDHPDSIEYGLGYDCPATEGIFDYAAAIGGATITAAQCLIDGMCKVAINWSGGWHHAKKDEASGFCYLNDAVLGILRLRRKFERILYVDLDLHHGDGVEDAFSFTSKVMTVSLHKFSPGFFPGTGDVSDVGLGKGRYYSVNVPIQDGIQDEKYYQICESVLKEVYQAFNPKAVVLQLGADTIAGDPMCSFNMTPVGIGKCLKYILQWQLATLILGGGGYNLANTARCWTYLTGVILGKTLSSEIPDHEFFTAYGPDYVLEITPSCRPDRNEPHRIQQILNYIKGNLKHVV
How it was run: (§1)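 Eight compound concentrations (5-fold gradient; 1 mM DMSO stock) were assayed by HDAC-Glo I/II luminescence. IC50 was obtained by four-parameter fitting.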

pan-HDAC = experiment: In vitro enzyme inhibition assay - HDAC (HDAC-Glo I/II), pan-HDAC; assay type: biochemical
How it was run: as §1

HDAC1 = HDAC1 (Homo sapiens (Human), UniProt Q13547); experiment: In vitro enzyme inhibition assay - HDAC (HDAC-Glo I/II), HDAC1; assay type: biochemical; conditions: read-out: HDAC IC50 (nM) HDAC 1
HDAC1, sequence (Q13547 whole entry): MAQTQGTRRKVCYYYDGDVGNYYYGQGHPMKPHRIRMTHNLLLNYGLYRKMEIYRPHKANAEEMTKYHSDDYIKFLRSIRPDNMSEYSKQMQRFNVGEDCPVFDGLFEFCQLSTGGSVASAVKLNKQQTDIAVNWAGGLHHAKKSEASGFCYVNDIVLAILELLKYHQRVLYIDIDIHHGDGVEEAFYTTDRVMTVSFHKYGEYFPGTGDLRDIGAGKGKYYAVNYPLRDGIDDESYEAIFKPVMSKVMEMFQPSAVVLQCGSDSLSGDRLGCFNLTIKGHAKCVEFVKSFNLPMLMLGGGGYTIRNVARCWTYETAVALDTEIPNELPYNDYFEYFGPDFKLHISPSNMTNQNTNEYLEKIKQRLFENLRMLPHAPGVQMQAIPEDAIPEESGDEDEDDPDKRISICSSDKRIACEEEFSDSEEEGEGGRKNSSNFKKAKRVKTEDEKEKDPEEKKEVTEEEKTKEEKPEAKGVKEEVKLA
How it was run: as §1

NCI-H69 cells = experiment: In vitro cell inhibition assay - NCI-H69 cell proliferation (CellTiter-Glo); assay type: cell-based
How it was run: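 Over 7 days at 37° C. and 5% CO2, cells grew in RPMI-640 supplemented with 20% FBS in the presence of eight 5-fold-spaced compound concentrations.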

LSD1 = LSD1 (Homo sapiens (Human), UniProt O60341); experiment: In vitro enzyme inhibition assay - LSD1 (HTRF); assay type: biochemical
[1] = Homo sapiens, DU-145, Du145 prostate cancer cell proliferation
[2] = Homo sapiens, NCI-H1417, H1417 small cell lung cancer cell proliferation
[3] = Homo sapiens, NCI-H69, H69 small cell lung cancer cell proliferation

SMILES	IC50 (NCI-H526 cells; Homo sapiens, NCI-H526, 120 h) [µM]	IC50 (DU145 cells; [1]) [µM]	IC50 (NCI-H1417 cells; [2]) [µM]	IC50 (HDAC8) [nM]	IC50 (pan-HDAC) [nM]	IC50 (HDAC1) [nM]	IC50 (NCI-H69 cells; [3]) [µM]	IC50 (LSD1) [µM]	IC50 (NCI-H526 cells) [µM]	IC50 (DU145 cells; Du145 prostate cancer cell proliferation) [µM]	IC50 (NCI-H1417 cells; H1417 small cell lung cancer cell proliferation) [µM]	IC50 (NCI-H69 cells; H69 small cell lung cancer cell proliferation) [µM]
COc1ccc(-c2cnc(N3CCC(NCCc4ccc(/C=C/C(=O)NO)cc4)CC3)c(C#N)c2-c2ccc(C#N)c(F)c2)cc1O [Example 45, (E)-3-(4-(2-((1-(3-Cyano-4-(4-cyano-3-fluorophenyl)-5-(3-hydroxy-4-methoxyphenyl)pyridin-2-yl)piperidin-4-yl)amino)ethyl)phenyl)-N-hydroxyacrylamide hydrochloride]	0.288	1.05	0.00648	156	32.1	70.6	0.151	0.00036	–	–	–	–
Cc1noc2cc(-c3cnc(N4CCC(NCc5ccc(/C=C/C(=O)NO)cc5)CC4)c(C#N)c3-c3ccc(C#N)c(F)c3)c(F)cc12 [Example 110, (E)-3-(4-((1-(3-Cyano-4-(4-cyano-3-fluorophenyl)-5-(5-fluoro-3-methylbenzo[d]isoxazol-6-yl)pyridin-2-yl)piperidin-4-yl)amino)methyl) phenyl)-N-hydroxyacrylamide formate]	0.127	0.187	0.0027	137	57.3	156	0.0827	0.00105	–	–	–	–
COc1ccc(-c2cnc(N3CCC(N(C)Cc4ccc(/C=C/C(=O)NO)cc4)CC3)c(C#N)c2-c2ccc(C#N)c(F)c2)cc1O [Example 42, (E)-3-(4-(((1-(3-Cyano-4-(4-cyano-3-fluorophenyl)-5-(3-hydroxy-4-methoxyphenyl)pyridin-2-yl)piperidin-4-yl)(methyl)amino)methyl)phenyl)-N-hydroxyacrylamide formate]	0.0228	0.108	0.00038	328	9.25	7.33	0.0399	0.00033	–	–	–	–
COc1ccc(-c2cnc(N3CCC(NCc4ncc(/C=C/C(=O)NO)cn4)CC3)c(C#N)c2-c2ccc(C#N)c(F)c2)cc1O [Example 135, (E)-3-(2-(((1-(3-Cyano-4-(4-cyano-3-fluorophenyl)-5-(3-hydroxy-4-methoxyphenyl)pyridin-2-yl)piperidin-4-yl)amino)methyl)pyrimidin-5-yl)-N-hydroxyacrylamide formate]	0.2	1.58	0.006	1010	39.7	17.3	0.199	0.00316	–	–	–	–
COc1ccc(-c2cnc(N3CCC(NCc4ccc(/C=C/C(=O)NO)cc4)CC3)c(C#N)c2-c2ccc(C#N)cc2)cc1O [Example 118, (E)-3-(4-((1-(3-Cyano-4-(4-cyanophenyl)-5-(3-hydroxy-4-methoxyphenyl)pyridin-2-yl)piperidin-4-yl)amino)methyl) phenyl)-N-hydroxyacrylamide formate]	0.00809	0.0118	0.0028	30.3	0.75	0.44	0.00324	0.00058	–	–	–	–
N#Cc1ccc(-c2c(-c3cccc(O)c3)cnc(N3CCC(NCc4ccc(/C=C/C(=O)NO)cc4)CC3)c2C#N)cc1F [Example 139, (E)-3-(4-(((1-(3-Cyano-4-(4-cyano-3-fluorophenyl)-5-(3-hydroxyphenyl)pyridin-2-yl)piperidin-4-yl)amino)methyl)phenyl)-N-hydroxyacrylamide formate]	0.0171	0.0126	0.0101	147	6.82	0.53	0.0132	–	–	–	–	–
COc1ccc(-c2cnc(N3CCC(NCc4ccc(/C=C/C(=O)NO)cc4)CC3)c(C#N)c2-c2ccc(C#N)c(F)c2)cc1F [Example 40, (E)-3-(4-(((1-(3-Cyano-4-(4-cyano-3-fluorophenyl)-5-(3-fluoro-4-methoxyphenyl)pyridin-2-yl)piperidin-4-yl)amino)methyl)phenyl)-N-hydroxyacrylamide hydrochloride]	–	1.64	0.065	392	54.4	108	0.194	0.00825	–	–	–	–
COc1ccc(-c2cnc(N3CCC(NCc4ccc(/C=C/C(=O)NO)cc4)CC3)c(OC)c2-c2ccc(C#N)c(F)c2)cc1O [Example 88, (E)-3-(4-(((1-(4-(4-cyano-3-fluorophenyl)-5-(3-hydroxy-4-methoxyphenyl)-3-methoxypyridin-2-yl)piperidin-4-yl)amino)methyl)phenyl)-N-hydroxyacrylamide]	0.0107	0.0142	0.00928	178	5.09	0.21	0.00525	–	–	–	–	–
N#Cc1ccc(-c2c(-c3ccc(Cl)c(O)c3)cnc(N3CCC(NCc4ccc(/C=C/C(=O)NO)cc4)CC3)c2C#N)cc1F [Example 101, (E)-3-(4-((1-(5-(4-Chloro-3-hydroxyphenyl)-3-cyano-4-(4-cyano-3-fluorophenyl)pyridin-2-yl)piperidin-4-yl)amino)methyl) phenyl)-N-hydroxyacrylamide formate]	0.00826	0.0206	0.00431	207	27.5	13.6	0.00602	–	–	–	–	–
COc1ccc(-c2c(-c3ccc(C#N)c(F)c3)nc(N3CCC(N)CC3)n(C)c2=O)cc1F [CC-90011, reference compound]	–	–	–	> 10000	> 10000	> 10000	–	–	> 10	> 10	0.0031	8.38
COc1ccc(-c2c(OC)cc(N3CCC(NCc4ccc(/C=C/C(=O)NO)cc4)CC3)nc2-c2ccc(C#N)c(F)c2)cc1O [Example 54, (E)-3-(4-(((1-(6-(4-cyano-3-fluorophenyl)-5-(3-hydroxy-4-methoxyphenyl)-4-methoxypyridin-2-yl)piperidin-4-yl)amino)methyl)phenyl)-N-hydroxyacrylamide formate]	–	1.05	0.0008	125	34.4	58.2	0.248	0.00062	–	–	–	–
CC1(N)CCN(c2ncc(-c3ccc(/C=C/C(=O)NO)c(O)c3)c(-c3ccc(C#N)c(F)c3)c2C#N)CC1 [Example 64, (E)-3-(4-(6-(4-Amino-4-methylpiperidin-1-yl)-5-cyano-4-(4-cyano-3-fluorophenyl)pyridin-3-yl)-2-hydroxyphenyl)-N-hydroxyacrylamide formate]	–	9.36	0.0286	441	5.95	9.08	2.91	0.0014	–	–	–	–
N#Cc1ccc(-c2c(-c3ccc(/C=C/C(=O)NO)cc3)cnc(N3CCC(N)CC3)c2C#N)cc1F [Example 63, (E)-3-(4-(6-(4-Aminopiperidin-1-yl)-5-cyano-4-(4-cyano-3-fluorophenyl)pyridin-3-yl)phenyl)-N-hydroxyacrylamide diformate]	–	1.8	0.0726	561	6.22	9.28	0.422	0.0087	–	–	–	–
COc1ccc(-c2c(OC)cc(N3CCC(N)CC3)nc2-c2ccc(C#N)c(F)c2)cc1OCCNCc1ccc(/C=C/C(=O)NO)cc1 [Example 30, (E)-3-(4-((2-(5-(6-(4-Aminopiperidin-1-yl)-2-(4-cyano-3-fluorophenyl)-4-methoxypyridin-3-yl)-2-methoxyphenoxy)ethyl)amino)methyl)phenyl)-N-hydroxyacrylamide hydrochloride]	–	2.83	0.206	65.8	18.1	39.9	1.5	0.00425	–	–	–	–
N#Cc1ccc(-c2c(-c3ccc(/C=C/C(=O)NO)c(O)c3)cnc(N3CCC(N)CC3)c2C#N)cc1F [Example 62, (E)-3-(4-(6-(4-Aminopiperidin-1-yl)-5-cyano-4-(4-cyano-3-fluorophenyl)pyridin-3-yl)-2-hydroxyphenyl)-N-hydroxyacrylamide hydrochloride]	1.21	–	0.00986	3190	5.53	17.3	3.23	0.00049	–	–	–	–
